Experimental data: article PMC3350394, “Kinetic analysis and test-retest variability of the radioligand [^11C](R)-PK11195 binding to TSPO in the human brain - a PET study in control subjects” (EJNMMI Research, 2012)

Tests used:
[1] = Radioligand brain exposure (PET); assay type: in vivo, human
Protocol: To calculate the percentage of [^11C](R)-PK11195 injected that was present in the brain at the time of maximal radioactivity, the radioactivity concentration in the ROI for the whole brain was multiplied by the estimated average brain volume (1,250 mL), divided by the radioactivity injected and multiplied by 100 to obtain the percentage of injected radioactivity.
Average radioactivity for the ROI was calculated by pooling the data from the series of brain sections. The radioactivity concentration for each sequential time frame was corrected for the physical decay of carbon-11 and used to obtain the regional time-radioactivity curves (TACs; in kiloBecquerels per cubic centimetre).

[2] = Plasma metabolite analysis using HPLC; assay type: in vivo, human
Text: The method for the determination of the fraction of radioactivity corresponding to unchanged [^11C](R)-PK11195 and labelled metabolites during the time of a PET measurement was a modification of a high-performance liquid chromatography (HPLC) method developed for other PET radioligands. […] The HPLC system used consisted of a Merck-Hitachi D-7000 interface module, a Merck-Hitachi L-7100 pump and a Rheodyne injector (7125 with a 5.0-mL loop) (VWR International, Stockholm, Sweden) equipped with a Waters/-Bondapack-C18 column (300 mm × 7.8 mm, 10-μm particle size; Waters, Milford, MA, USA) and a Merck-Hitachi L-7400 absorbance detector (254 nm) in series with a Packard Radiomatic 150TR radiometric detector (Packard BioScience, Meriden, CT, USA) equipped with a PET flow cell (600-μL cell). The HPLC methods used were acetonitrile (A) and phosphoric acid (0.01 M) (B) as mobile phase at 6.0 mL/min. […] The radioactive peak having a retention time corresponding to [^11C](R)-PK11195 was integrated, and its area was expressed as a percentage of the sum of the areas of all detected radioactive peaks.

[3] = design: method as in PMID 19050880, PMID 16039131; details: cited from earlier work
p-glycoprotein-ABCB1 = test system: p-glycoprotein-ABCB1; design: method as in PMID 19948230; details: cited from earlier work
ABCC1 = test system: ABCC1; design: method as in PMID 19948230; details: cited from earlier work
TSPO [4] = test system: TSPO; design: method as in PMID 22008728; details: TSPO SNP Ala147Thr; cited from earlier work
TSPO [5] = target: TSPO (Homo sapiens, UniProt P30536); test: PET, linear graphical analysis (Logan) distribution volume; assay type: in vivo; design: from tissue; host or cells: living human brain (in vivo PET in six control subjects); details: for Error % mean(SD) / Error range (%): VT Logan test-retest; for VT Logan: mean(SD)
TSPO (Homo sapiens, UniProt P30536), sequence (P30536 whole entry): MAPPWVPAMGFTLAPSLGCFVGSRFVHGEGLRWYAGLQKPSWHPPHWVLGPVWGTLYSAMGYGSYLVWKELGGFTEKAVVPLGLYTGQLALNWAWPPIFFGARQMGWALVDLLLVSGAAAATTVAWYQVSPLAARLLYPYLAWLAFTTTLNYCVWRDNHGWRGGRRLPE
Protocol: The [^11C](R)-PK11195 distribution volume was also quantified using a linear graphical analysis for reversible ligand binding. The regional distribution volumes were determined from the slope of the linear plots obtained from 8 to 60 min after intravenous (i.v.) injection using the radioactivity of unchanged [^11C](R)-PK11195 in arterial plasma as an input function.

[6] = at peak, approximately 1 min after i.v. injection, n = 6
[7] = by the end of PET measurement time

With `CC[C@@H](C)N([11CH3])C(=O)c1cc2ccccc2c(-c2ccccc2Cl)n1` [[^11C](R)-PK11195] the “radioactivity injected (ID%) present in the brain” value [1, 6] was “about 2.5%”, the “radioactivity injected (ID%) present in the brain, range” value [1, 6] was 1.9% to 3.2 and the “time of peak of total brain radioactivity after injection” value ([1]; intravenous injection) was “approximately 1 min”. For the same molecule, the “mean ID% in the brain” value ([1]; measurement time from 20 to 60 min) was 1.5% to 1.3, the “polarity of radioactive metabolites in plasma” value ([2]; HPLC) was “more polar than the parent compound” and the “unchanged fraction in plasma” value [2, 7] was 70 ± 1.5%. For the same molecule, the “unchanged fraction in plasma, range” value [2, 7] was 60% to 77, the metabolism ([2]; human plasma) was “not extensive” and the “log P” value [3] was 1.4 to 3.4. The “substrate for ABC transporter” value (p-glycoprotein-ABCB1) was “not a substrate”, the “substrate for ABC transporter” value (ABCC1) was “not a substrate” and the “sensitivity to TSPO genotype” value (TSPO [4]) was “not sensitive to TSPO genotype”. The “Error % mean(SD)” value (TSPO [5]; brainstem) was -8(12) %, the “Error range (%)” value (TSPO [5]; brainstem) was -24 to 12% and the “VT Logan” value (TSPO [5]; brainstem, retest) was 0.67(0.19). The “VT Logan” value (TSPO [5]; brainstem, test) was 0.74(0.21), the “Error % mean(SD)” value (TSPO [5]; caudate) was -5(23) % and the “Error range (%)” value (TSPO [5]; caudate) was -37 to 25%. For the same molecule, the “VT Logan” value (TSPO [5]; caudate, retest) was 0.59(0.19), the “VT Logan” value (TSPO [5]; caudate, test) was 0.64(0.16) and the “Error % mean(SD)” value (TSPO [5]; cerebellum) was -4(18) %. The “Error range (%)” value (TSPO [5]; cerebellum) was -29 to 20%, the “VT Logan” value (TSPO [5]; cerebellum, retest) was 0.68(0.18) and the “VT Logan” value (TSPO [5]; cerebellum, test) was 0.72(0.18). For the same molecule, the “Error % mean(SD)” value (TSPO [5]; grey matter) was -4(16) %, the “Error range (%)” value (TSPO [5]; grey matter) was -28 to 17% and the “VT Logan” value (TSPO [5]; grey matter, retest) was 0.65(0.18). For the same molecule, the “VT Logan” value (TSPO [5]; grey matter, test) was 0.69(0.17), the “Error % mean(SD)” value (TSPO [5]; putamen) was 3(25) % and the “Error range (%)” value (TSPO [5]; putamen) was -25 to 42%. The “VT Logan” value (TSPO [5]; putamen, retest) was 0.73(0.26), the “VT Logan” value (TSPO [5]; putamen, test) was 0.70(0.15) and the “Error % mean(SD)” value (TSPO [5]; thalamus) was -3(20) %. The “Error range (%)” value (TSPO [5]; thalamus) was -26 to 27%, the “VT Logan” value (TSPO [5]; thalamus, retest) was 0.76(0.25) and the “VT Logan” value (TSPO [5]; thalamus, test) was 0.80(0.24). For the same molecule, the “Error % mean(SD)” value (TSPO [5]; white matter) was -4(19) %, the “Error range (%)” value (TSPO [5]; white matter) was -32 to 19% and the “VT Logan” value (TSPO [5]; white matter, retest) was 0.65(0.20). For the same molecule, the “VT Logan” value (TSPO [5]; white matter, test) was 0.69(0.18), the “Error % mean(SD)” value (TSPO [5]; whole brain) was -4(16) % and the “Error range (%)” value (TSPO [5]; whole brain) was -29 to 17%. For the same molecule, the “VT Logan” value (TSPO [5]; whole brain, retest) was 0.65(0.19) and the “VT Logan” value (TSPO [5]; whole brain, test) was 0.69(0.17).
